From patent US20250120394A1, “SILANE SURFACTANT FOR AGRICULTURAL USE” (MOMENTIVE PERFORMANCE MATERIALS INC., priority 2023, published 2025)
Structures can show the parent of a compound that is named as a salt.

Experiments:
Type in all cases: in vivo
[1] = test system: Redroot pigweed (Amaranthus retroflexus, EPPO Code: AMARE); assay: Effect of adjuvant on performance of 2,4-D Amine, lab spray trial, visual weed control; details: 2,4-D amine 0.25 wt % alone, no adjuvant
Description: (§1) Spray Protocol: A lab spray trial was conducted to evaluate the effect of the silane compositions in accordance with the present technology on the performance of various herbicides.
(§2) Target weeds were grown from seed, under controlled conditions in a “Caron Model 7301-50-2” Growth chamber using simulated full sunlight. Sprays were applied to the target weeds at the 4-6 leaf growth stage using a DeVries Generation 4—Research Track Sprayer with a T-Jet 8002E nozzle at an equivalent spray volume of 100 L/ha.
SIL-8 was compared to a conventional trisiloxane alkoxylate (TSA-1) as a spray adjuvant, to improve the performance of 2,4-D Amine (herbicide) on AMARE. The spray protocol is described above. The 2,4-D Amine was applied at a sub lethal dose (25% of label rate) to show the impact of the adjuvant on performance. Assessment of weed control was made by a visual observation as compared to an untreated check.

[2] = test system: red banded stink bug (Piezodorus guildinii); assay: Field trial: control of stink bug on green beans with Cefanol acephate plus adjuvant; details: Cefanol acephate 0.50 kg/ha alone
Description: A composition of the present invention (SIL-8) was compared to a conventional trisiloxane alkoxylate (TSA-2) for the improvement of the insecticide acephate in the control of stink-bug.
The experiment was conducted with a randomized block design, with 6 treatments (including the untreated check) and 4 repetitions. Each plot was of 12 m^2 in area. The data obtained were subjected to analysis of variance and the average of the treatments compared using the Tukey test to 5% probability test.
During the trial there were […] evaluation periods: 0, 3, 5 and 7 Days After Application (DAA), for determining the number of red banded stink bugs in each plot evaluated.
The treatments were applied using a CO2 pressurized Backpack sprayer, with 4 nozzles spaced 50 cm between each one. Nozzles type XR11002 (Flat Fan) and a spray volume 150 L·ha.

[3] = test system: Yellow Foxtail (Setaria pumila); assay: Control of Yellow Foxtail with glyphosate-isopropylamine salt, visual weed control; details: glyphosate-isopropylamine salt 0.75% a.i. alone, adjuvant 0
Description: as §1, §2
Glyphosate-isopropylamine salt was applied at 0.75% a.i. to Yellow foxtail at a 15 cm growth-stage. The spray mixtures were applied either as herbicide alone, or in combination with the silane compositions SIL-6, SIL-9 and SIL-12 at an equivalent spray volume of 100 L/ha. A visual assessment of weed control was made at 7 and 14 Days After Treatment (DAT). The application method is the same as previously described.

CNC.O=C(O)COc1ccc(Cl)cc1Cl [2,4-D amine, 2,4-D Amine]
Weed control of AMARE, 7-DAT [1]: 46%
Weed control of AMARE, 14-DAT [1]: 55%

COP(=O)(NC(C)=O)SC (centres unmarked) [Acephate]
Eff. %, 1 DAA [2]: 76.0%
Eff. %, 3 DAA [2]: 60.0%
Eff. %, 5 DAA [2]: 45.5%
Eff. %, 7 DAA [2]: 63.6%
Number of red banded stink bug, 1 DAA [2]: 0.5 b
Number of red banded stink bug, 3 DAA [2]: 0.7 b
Number of red banded stink bug, 5 DAA [2]: 0.5 a
Number of red banded stink bug, 7 DAA [2]: 0.3 b
Eff. %, 0 DAA ([2]; 0 DAA (initial)): 0.0%
Number of red banded stink bug, 0 DAA ([2]; 0 DAA (initial)): 1.8 a

O=C(O)CNCP(=O)(O)O [Glyphosate, Glyphosate-isopropylamine salt]
Weed control of Yellow foxtail, 7 DAT [3]: 20
Weed control of Yellow foxtail, 14 DAT [3]: 92
